What was measured:
Assay type in all cases: in vivo
[1] = tested on: Arabidopsis Group 1 line R127; experiment: Root growth dose response of Group 1 line R127
Procedure: (§1) The dose responses of root growth of the mutant lines treated with a variety of auxins were measured to define the level and chemical spectrum of resistance in detail.
Four additional herbicidal compounds were also tested on the Group 1 line, R127.

[2] = tested on: Group 1 mutant R009 Arabidopsis plants; experiment: Foliar spray application in the greenhouse, AFB5 mutant; details: 12 days after treatment
Procedure: (§2) FIGS. 8A-8C show a comparison of the effect of a foliar application of 200 g/ha picloram (FIG. 8A), 200 g/ha aminopyralid (FIG. 8B) or 50 g/ha 2,4-D (FIG. 8C) on wild type Col-0 and mutant R009 Arabidopsis plants. Pictures were taken 12 days after treatment of 17-day old plants.
(§3) Arabidopsis seedlings were grown for two weeks in a growth chamber (23° C.; continuous light at 120-150 μE m^−2 sec^−1), then taken to the greenhouse for three days after which plants were sprayed with herbicide using a track-sprayer to deliver the appropriate rate. Plants were then grown in the greenhouse for 12 days (22° C. under supplemented light with a 14 h: 10 h light-dark cycle) prior to photography and evaluation. […] Thus the chemical selectivity of resistance seen in seedling plate assays is maintained in adult plants with foliar exposure to the auxin herbicides.

[3] = tested on: Arabidopsis mutant line R090; experiment: Seedling resistance screen, line R090; details: line R090, allelic to axr1-3
Procedure: (§4) To identify mutants resistant to picolinate auxins, EMS-mutagenized M2 seedlings were screened for resistance to DAS534, a 6-phenylpicolinate auxin (Compound 173 in WO 03/011853A1). The seedlings were grown on agarose medium containing 10 nM DAS534. This concentration was sufficient to produce marked auxinic effects on the seedlings including significant inhibition (60%) of root growth. From a total of 780,100 EMS M2 seedlings, 125 putative resistant mutants were identified by visual inspection. Seeds were recovered from 33 of these plants. Selection of lines for further study was based on the strength of resistance, elimination of potential siblings and the health and fertility of adult plants.
The mutants were crossed with wild-type Col-0 plants and the progeny were analyzed for resistance to DAS534. […] To determine the number of genetic loci identified in this screen, complementation tests were performed by crossing the herbicide-resistant mutants with each other and the known auxin-resistant mutant axr1-3 in a pair-wise fashion. […] Complementation Group 1 contained the mutants R009, R024, R045 and R127, and complementation Group 2 contained the mutants R051, R107 and R118. All seven selectively-resistant mutant lines were phenotypically normal when grown on agarose medium or in soil and they had normal fertility. […]

[4] = tested on: Arabidopsis Group 1 (afb5) and Group 2 (sgt1b) mutant lines; experiment: Root growth dose response of picolinate auxin resistant mutants, complementation Groups 1 and 2
Procedure: FIGS. 1A-1D. […] Root lengths of Arabidopsis seedlings were measured 8 days after seeding on plates containing a range of concentrations of the test compounds and are plotted as a percentage of the root length of untreated plants in the same experiment. […] The symbols used for wild type, R009 from complementation Group 1 and R051 from complementation Group 2 are denoted in FIG. 1A.
To identify mutants resistant to picolinate auxins, EMS-mutagenized M2 seedlings were screened for resistance to DAS534, a 6-phenylpicolinate auxin (Compound 173 in WO 03/011853A1). The seedlings were grown on agarose medium containing 10 nM DAS534. […] Selection of lines for further study was based on the strength of resistance, elimination of potential siblings and the health and fertility of adult plants.
as §1

[5] = tested on: wild type Col-0 Arabidopsis plants; experiment: Foliar spray application in the greenhouse, wild type; details: 12 days after treatment
Procedure: as §2, §3

[6] = tested on: Arabidopsis mutant axr1-3; experiment: Root growth response of mutant axr1-3
Procedure: (§5) FIGS. 5A-5C. Comparison of the effect of DAS534 and 2,4-D on previously characterized mutants. Measurements were performed as described in FIG. 2. Typical root lengths for untreated controls were 20, 39 and 31 mm for tir1-1, axr2-1 and axr1-3 plants respectively. (FIG. 5A) Effect of DAS534 on edm1 and R051. The deletion mutant line edm1 lacks seven genes (At4g11220 through At4g11280) including SGT1b (Tor et al., Plant Cell 14: 993-1003, 2002). Effect of DAS534 (FIG. 5B) and 2,4-D (FIG. 5C) on axr1-3, axr2-1 and tir1-1 compared with R009 and R051.
The mutant axr1-3 is defective in the rubinylation mechanism required to activate SCF complexes. […] The axr1-3 mutant was also very resistant to picloram (160-fold). […] This is consistent with its general role in the activation of SCF complexes (Schwechheimer et al., Plant Cell. 14(10):2553-2563, 2002).

[7] = tested on: Arabidopsis mutant tir1-1; experiment: Root growth response of mutant tir1-1
Procedure: as §5

[8] = tested on: Arabidopsis seedlings (wild type / EMS M2); experiment: Seedling plate assay on agarose medium, root growth and morphology
Procedure: FIGS. 1A-1D. Differential effects of auxins on root growth of mutants from complementation Groups 1 and 2. Root lengths of Arabidopsis seedlings were measured 8 days after seeding on plates containing a range of concentrations of the test compounds and are plotted as a percentage of the root length of untreated plants in the same experiment. Typical root lengths for untreated controls were 21, 21 and 24 mm for wild-type, Group 1, and Group 2 plants respectively. The symbols used for wild type, R009 from complementation Group 1 and R051 from complementation Group 2 are denoted in FIG. 1A.
as §4

[9] = tested on: Arabidopsis deletion mutant line edm1; experiment: Root growth response of deletion mutant edm1; details: edm1, data not shown
Procedure: as §5
The R051 mutation was mapped to a 100 kb interval on chromosome 4 around 36 cM between markers C4—36 and C4—37 (FIG. 3). This interval contains 17 genes including At4g11260 which encodes the tetratricopeptide-repeat containing protein, SGT1b (SEQ ID NO: 4). […] The deletion mutant line edm1 lacks seven genes (At4g11220 through At4g11280) including SGT1b (Tor et al., Plant Cell 14: 993-1003, 2002). […] It was also very cross-resistant to picloram (20-fold, data not shown) similar to the Group 2 mutants. To determine if the DAS534-resistant mutants in complementation Group 2 contained mutations in SGT1b, At4g11260 was PCR amplified from genomic DNA from all three of the mutants. […]

## O=C(O)Cc1cccc2ccccc12 [1-naphthylacetic acid]
[1]
  resistance or difference in response, in words: no resistance

## O=C(O)COc1ccc(Cl)cc1Cl [2,4-D]
[2]; 50 g/ha
  effect of foliar spray application: auxinic symptoms and growth reduction
[3]
  resistance of line R090: robust resistance
[4]; 0.045 μM 2,4-D, seven lines R009, R024, R045, R127, R051, R107, R118
  cross resistance of DAS534-resistant lines: negligible resistance
[4]; root growth dose response, both complementation groups
  resistance of the mutant lines, in words: negligible resistance
[5]; 50 g/ha, wild type
  effect of foliar spray application: auxinic symptoms and growth reduction
[6]
  level of resistance, in words: high level of resistance
[7]
  level of resistance, in words: significantly lower levels of resistance to 2,4-D than axr1

## Nc1c(F)c(-c2ccc(Cl)cc2)nc(C(=O)O)c1Cl [DAS534, 4-amino-3-chloro-5-fluoro-6-(4-chlorophenyl)pyridine-2-carboxylic acid]
[3]
  resistance of line R090: robust resistance
[4]; Group 1 mutant R127 and Group 2 mutant R051, 5 nM DAS534
  hypocotyl elongation and cotyledon expansion: unaffected
[6]
  level of resistance, in words: high level of resistance
[8]; Arabidopsis thaliana, 10 nM DAS534 in agarose medium
  inhibition at 0.01 µM: 60%
[8]; wild-type plants, 5 nM DAS534
  visible auxinic effects on seedlings: slight agravitopism, have elongated hypocotyls and are unable to fully expand their cotyledons
[7]
  level of resistance, in words: modest level of resistance

## Nc1cc(Cl)nc(C(=O)O)c1Cl [aminopyralid]
[2]; 200 g/ha
  effect of foliar spray application: minimal effect
[5]; 200 g/ha, wild type Col-0
  effect of foliar spray application: profound morphological effects and severely inhibited plant growth

## O=C(O)c1nc(Cl)ccc1Cl [clopyralid]
[1]
  fold resistance: 50 fold

## COc1c(Cl)ccc(Cl)c1C(=O)O [dicamba]
[1]
  resistance or difference in response, in words: no resistance

## O=C(O)c1ccccc1C(=O)Nc1cccc2ccccc12 [napthylphthalamic acid]
[1]
  resistance or difference in response, in words: no difference in response

## Nc1c(Cl)c(Cl)nc(C(=O)O)c1Cl [picloram]
[9]
  cross-resistance: 20 fold
[2]; 200 g/ha
  effect of foliar spray application: minimal effect
[5]; 200 g/ha, wild type Col-0
  effect of foliar spray application: profound morphological effects and severely inhibited plant growth
[6]
  fold resistance: 160 fold
[7]
  level of resistance, in words: slightly more resistant

Source: patent US8603755B2, “Resistance to auxinic herbicides” (Dow AgroSciences, LLC., priority 2006, dated 2013)
